Drawing on US20230295087A1, “AGONISTS OF ROR GAMMAt” (BRISTOL-MYERS SQUIBB COMPANY, priority 2019, published 2023), this text covers EC50 for 22 compounds.

Molecules are shown by their SMILES.

By EC50 is commonly meant the concentration that produces a half-maximal response. A high value points to a less potent agent.

The experiment addresses T1, human RORgT (Homo sapiens, UniProt P51449).
T1 construct: expressed in transfected cells
T1 sequence (P51449 267-516): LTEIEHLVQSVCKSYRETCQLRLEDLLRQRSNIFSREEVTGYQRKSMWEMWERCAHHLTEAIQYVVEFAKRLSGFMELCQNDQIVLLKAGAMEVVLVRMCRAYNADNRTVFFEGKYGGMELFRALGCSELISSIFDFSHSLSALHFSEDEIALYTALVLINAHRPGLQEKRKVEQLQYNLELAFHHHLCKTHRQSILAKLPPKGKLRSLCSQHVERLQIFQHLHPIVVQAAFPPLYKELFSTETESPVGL
The experiment is described as follows: RORgT Gal4 Luciferase Reporter Gene Assay. The experiment is classed as cell-based. The following applies: engineered Jurkat cells overexpressing RORgT (LBD or full length) fused with Gal4 Luc reporter; 18 hours at 37° C.; luminescence. Summed up:
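Jurkat cells expressing Gal4 Luc with either RORgT LBD (aa267-516) or full-length human RORgT, 10,000 cells/well, treated with compound (40 µM to 0.67 nM final, 3-fold dilutions) for 18 h at 37° C. Steady-Glo luminescence read; inhibition of constitutive activity as % signal-window reduction relative to a control compound.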
On the technique in general: Reporter assays use an easily measured gene product as a stand-in for the process of interest.
`NS(=O)(=O)CC(=O)N1CC[C@@]2(S(=O)(=O)c3ccc(F)cc3)c3ccc(OCc4cc(Cl)ccc4Cl)cc3CC[C@@H]12` [Example 209, 2-[(3aR,9bR)-7-[(2,5-dichlorophenyl)methoxy]-9b-(4-fluorobenzenesulfonyl)-1H,2H,3H,3aH,4H,5H,9bH-benzo[e]indol-3-yl]-2-oxoethane-1-sulfonamide] yielded a concentration for a half-maximal effect (EC50) of 124 nM.
The same measure for `Cc1ccccc1Cc1ccc2c(c1)CC[C@H]1N(C(=O)[C@]3(C)CC[C@@H](C(=O)O)CC3)CC[C@@]21S(=O)(=O)c1ccc(F)cc1` [Example 12, (1R,4r)-4-((3aR,9bR)-9b-((4-fluorophenyl)sulfonyl)-7-(2-methylbenzyl)-2,3,3a,4,5,9b-hexahydro-1H-benzo[e]indole-3-carbonyl)-4-methylcyclohexane-1-carboxylic acid]: 19 nM.
Turning to `CC(C)(O)CCNC(=O)N1CC[C@@]2(S(=O)(=O)c3ccccc3)c3ccc(OCc4c(Cl)cccc4Cl)cc3CC[C@@H]12` [Example 86, (3aR,9bR)-9b-(benzenesulfonyl)-7-[(2,6-dichlorophenyl)methoxy]-N-(3-hydroxy-3-methylbutyl)-1H,2H,3H,3aH,4H,5H,9bH-benzo[e]indole-3-carboxamide], the EC50 was found to be 159 nM.
As for `CS(=O)(=O)N1CCC(C(=O)N2CC[C@@]3(S(=O)(=O)c4ccccc4)c4ccc(OCc5c(F)cccc5Cl)cc4CC[C@@H]23)CC1` [Example 137, 4-[(3aR,9bR)-9b-(benzenesulfonyl)-7-[(2-chloro-6-fluorophenyl)methoxy]-1H,2H,3H,3aH,4H,5H,9bH-benzo[e]indole-3-carbonyl]-1-methanesulfonylpiperidine], the figure is 8.8 nM; as for `Cc1ccccc1Oc1ccc2c(c1)CC[C@H]1N(C(=O)[C@]3(C)CC[C@@H](C(=O)O)CC3)CC[C@@]21S(=O)(=O)c1ccc(F)cc1` [Example 50, (1r,4r)-4-[(3aR,9bR)-9b-(4-fluorobenzenesulfonyl)-7-(2-methylphenoxy)-1H,2H,3H,3aH,4H,5H,9bH-benzo[e]indole-3-carbonyl]-4-methylcyclohexane-1-carboxylic acid], 6.8 nM.
Compound `CN1C[C@@H](C(=O)N2CC[C@@]3(S(=O)(=O)c4ccc(F)cc4)c4ccc(OCc5c(F)cccc5C(F)(F)F)cc4CC[C@@H]23)NC1=O` [Example 30, (4S)-4-[(3aR,9bR)-7-{[2-fluoro-6-(trifluoromethyl)phenyl]methoxy} -9b-(4-fluorobenzenesulfonyl)-1H,2H,3H,3aH,4H,5H,9bH-benzo[e]indole-3-carbonyl]-1-methylimidazolidin-2-one] showed a 50% effective concentration (EC50) of 3.9 nM.
Take `O=C1CC[C@@H](C(=O)N2CC[C@@]3(S(=O)(=O)c4ccc(F)cc4)c4ccc(OCc5c(F)cccc5C(F)(F)F)cc4CC[C@@H]23)N1Cc1ccc(F)cc1` [Example 28, (5S)-5-[(3aR,9bR)-7-{[2-fluoro-6-(trifluoromethyl)phenyl]methoxy} -9b-(4-fluorobenzenesulfonyl)-1H,2H,3H,3aH,4H,5H,9bH-benzo[e]indole-3-carbonyl]-1-[(4-fluorophenyl)methyl]pyrrolidin-2-one]: the EC50 stood at 8.2 nM.
As for `O=C1CCCN1CC(=O)N1CC[C@@]2(S(=O)(=O)c3ccccc3)c3ccc(OCc4c(Cl)cccc4Cl)cc3CC[C@@H]12` [Example 79, 1-{2-[(3aR,9bR)-9b-(benzenesulfonyl)-7-[(2,6-dichlorophenyl)methoxy]-1H,2H,3H,3aH,4H,5H,9bH-benzo[e]indol-3-yl]-2-oxoethyl}pyrrolidin-2-one], the figure is 210 nM.
With `CN1CCC(C(=O)N2CC[C@@]3(S(=O)(=O)c4ccc(F)cc4)c4ccc(OCc5ccc(F)cc5Cl)cc4CC[C@@H]23)CC1` [Example 206, 4-[(3aR,9bR)-7-[(2-chloro-4-fluorophenyl)methoxy]-9b-(4-fluorobenzenesulfonyl)-1H,2H,3H,3aH,4H,5H,9bH-benzo[e]indole-3-carbonyl]-1-methylpiperidine], the EC50 was 216 nM.
As for `CC(=O)N1CCC(C(=O)N2CC[C@@]3(S(=O)(=O)c4ccc(F)cc4)c4ccc(OCc5c(Cl)cccc5Cl)cc4CC[C@@H]23)CC1` [Example 189, 1-{4-[(3aR,9bR)-7-[(2,6-dichlorophenyl)methoxy] -9b-(4-fluorobenzenesulfonyl)-1H,2H,3H,3aH,4H,5H,9bH-benzo[e]indole-3-carbonyl]piperidin-1-yl}ethan-1-one], the midpoint of the response, the EC50, lay at 41 nM.
As for `CN1CCC(C(=O)N2CC[C@@]3(S(=O)(=O)c4ccc(F)cc4)c4ccc(OCc5c(F)cc(F)cc5Cl)cc4CC[C@@H]23)CC1` [Example 215, 4-[(3aR,9bR)-7-[(2-chloro-4,6-difluorophenyl)methoxy]-9b-(4-fluorobenzenesulfonyl)-1H,2H,3H,3aH,4H,5H,9bH-benzo[e]indole-3-carbonyl]-1-methylpiperidine], the figure is 157 nM.
`CS(=O)(=O)CC(=O)N1CC[C@@]2(S(=O)(=O)c3ccc(F)cc3)c3ccc(OCc4c(Cl)cccc4Cl)cc3CC[C@@H]12` [Example 191, 1-[(3 aR,9bR)-7-[(2,6-dichlorophenyl)methoxy] -9b-(4-fluorobenzenesulfonyl)-1H,2H,3H,3aH,4H,5H,9bH-benzo[e]indol-3-yl]-2-methanesulfonylethan-1-one] showed an EC50 of 134 nM.
`O=C(O)[C@H]1CC[C@H](C(=O)N2CC[C@@]3(S(=O)(=O)c4ccc(F)cc4)c4ccc(Cc5ccccc5)cc4CC[C@@H]23)CC1` [Example 34, (1r,4r)-4-[(3aR,9bR)-7-benzyl-9b-(4-fluorobenzenesulfonyl)-1H,2H,3H,3aH,4H,5H,9bH-benzo[e]indole-3-carbonyl]cyclohexane-1-carboxylic acid]: the EC50 came out at 10 nM.
The same measure for `CS(=O)(=O)CC(=O)N1CC[C@@]2(S(=O)(=O)c3ccc(F)cc3)c3ccc(OCc4cc(F)ccc4Cl)cc3CC[C@@H]12` [Example 195, 1-[(3 aR,9bR)-7-[(2-chloro-5-fluorophenyl)methoxy]-9b-(4-fluorobenzenesulfonyl)-1H,2H,3H,3aH,4H,5H,9bH-benzo[e]indol-3-yl]-2-methanesulfonylethan-1-one]: 158 nM; for `O=C(C1CCS(=O)(=O)C1)N1CC[C@@]2(S(=O)(=O)c3ccc(F)cc3)c3ccc(OCc4c(F)cccc4Cl)cc3CC[C@@H]12` (stereo partly drawn) [Example 163, 3-[(3aR,9bR)-7-[(2-chloro-6-fluorophenyl)methoxy]-9b-(4-fluorobenzenesulfonyl)-1H,2H,3H,3aH,4H,5H,9bH-benzo[e]indole-3-carbonyl]-1λ^6-thiolane-1,1-dione]: 12 nM; for `CC(C)(O)CNC(=O)N1CC[C@@]2(S(=O)(=O)c3ccccc3)c3ccc(OCc4c(Cl)cccc4Cl)cc3CC[C@@H]12` [Example 91, (3aR,9bR)-9b-(benzenesulfonyl)-7-[(2,6-dichlorophenyl)methoxy]-N-(2-hydroxy-2-methylpropyl)-1H,2H,3H,3aH,4H,5H,9bH-benzo[e]indole-3-carboxamide]: 104 nM.
`O=C(C1CCS(=O)(=O)CC1)N1CC[C@@]2(S(=O)(=O)c3ccc(F)cc3)c3ccc(Cc4c(F)cccc4Cl)cc3CC[C@@H]12` [Example 32, 4-[(3aR,9bR)-7-[(2-chloro-6-fluorophenyl)methyl]-9b-(4-fluorobenzenesulfonyl)-1H,2H,3H,3aH,4H,5H,9bH-benzo[e]indole-3-carbonyl]-1λ^6-thiane-1,1-dione] yielded an EC50 of 1.8 nM.
The same measure for `CS(=O)(=O)CCNC(=O)N1CC[C@@]2(S(=O)(=O)c3ccccc3)c3ccc(OCc4c(Cl)cccc4Cl)cc3CC[C@@H]12` [Example 92, (3aR,9bR)-9b-(benzenesulfonyl)-7-[(2,6-dichlorophenyl)methoxy]-N-(2-methanesulfonylethyl)-1H,2H,3H,3aH,4H,5H,9bH-benzo[e]indole-3-carboxamide]: 197 nM.
The same measure for `O=C(C1CCS(=O)(=O)C1)N1CC[C@@]2(S(=O)(=O)c3ccc(F)cc3)c3ccc(OCc4c(F)cc(F)cc4Cl)cc3CC[C@@H]12` (stereo partly drawn) [Example 218, 3-[(3aR,9bR)-7-[(2-chloro-4,6-difluorophenyl)methoxy]-9b-(4-fluorobenzenesulfonyl)-1H,2H,3H,3aH,4H,5H,9bH-benzo[e]indole-3-carbonyl]-1λ^6-thiolane-1,1-dione]: 12 nM.
In turn, `O=C(C1CCS(=O)(=O)CC1)N1CC[C@@]2(S(=O)(=O)c3ccc(F)cc3)c3ccc(Cc4ccc(F)cc4)cc3CC[C@@H]12` [Example 41, 4-[(3aR,9bR)-9b-(4-fluorobenzenesulfonyl)-7-[(4-fluorophenyl)methyl]-1H,2H,3H,3aH,4H,5H,9bH-benzo[e]indole-3-carbonyl]-1λ^6-thiane-1,1-dione] registered a 50% effective concentration (EC50) of 1.2 nM.
The same measure for `O=C(NC1CCS(=O)(=O)C1)N1CC[C@@]2(S(=O)(=O)c3ccccc3)c3ccc(OCc4c(Cl)cccc4Cl)cc3CC[C@@H]12` (stereo partly drawn) [Example 101, (3aR,9bR)-9b-(benzenesulfonyl)-7-[(2,6-dichlorophenyl)methoxy]-N-(1,1-dioxo-1λ^6-thiolan-3-yl)-1H,2H,3H,3aH,4H,5H,9bH-benzo[e]indole-3-carboxamide]: 62 nM; for `O=C(C1CCS(=O)(=O)C1)N1CC[C@@]2(S(=O)(=O)c3ccccc3)c3ccc(OCc4c(Cl)cccc4Cl)cc3CC[C@@H]12` (stereo partly drawn) [Example 59, 3-[(3aR,9bR)-9b-(benzenesulfonyl)-7-[(2,6-dichlorophenyl)methoxy]-1H,2H,3H,3aH,4H5H,9bH-benzo[e]indole-3-carbonyl]-1λ^6-thiolane-1,1-dione]: 16 nM.
